Measured values as given in US11773063B1, “Pharmaceutically acceptable salts and compositions thereof” (priority 2022, dated 2023).
Where a name gives a salt, the structure may show the parent alone.

Assays:
[1] = type: physicochemical; details: 40° C./75% RH, three days
Protocol: Physical Stability of Salts
Physical stability stress tests were conducted on generated crystalline salts at controlled temperature and relative humidity. The powder samples were stored at 40° C./75% RH for three days. After this time samples were analysed by XRPD to see whether the physical state of salts changed during the storage.

[2] = Thermo-Gravimetric Analysis (TGA), thermal stability; details: for thermal stability up to (TGA): nitrogen
Protocol: Thermo—Gravimetric Analysis (TGA)
TGA thermograms were obtained with a TA Instrument Discovery 550 in Al pans. The heating rate used was 10° C./min linear ramp from 25 to 400° C. with a nitrogen purging at a rate of 60 ml/min. TGA thermograms were analysed using TRIOS software.

[3] = Dynamic Vapor Sorption (DVS), salt screen and scale-up salts; type: physicochemical; details: for hygroscopicity class: DVS; for hygroscopicity class / moisture absorption at 70% RH / moisture absorption at 80% RH / water uptake up to 60% RH / deliquescence during DVS: 25° C.; for moisture absorption at 70% RH / moisture absorption at 80% RH / water uptake up to 60% RH: first sorption isotherm; for deliquescence during DVS: high RH
Protocol: Dynamic Vapor Sorption (DVS)
DVS analyses were performed on TA Instrument DVS Q5000. Samples were added to a pre-tared metallised quartz crucible and run at 25° C. from 40% RH to 90% RH, down to zero and back to 40%. This cycle was repeated in increments of 10% RH.

[4] = Polymorphism screen of hydrochloride and benzoate salts: thermal cycling, evaporation, antisolvent addition, cooling (XRPD); type: physicochemical
Protocol: Twenty five of the lyophilised samples were treated with solvent and thermally cycled between ambient and 40° C. with four hours spent under each condition. After three days and solids were isolated by centrifuge filtration and analysed by XRPD.
(§1) Twelve samples of the lyophilised material were treated with a minimal volume (ca 0.5 ml) of warm solvent, syringe filtered through a 0.22 µm filter and added to a clean HPLC vial and allowed to evaporate at RT. The solvents used and XRPD results following evaporation are detailed in the Table below:
as §1, with “micrometre” for “µm”
For antisolvent additions thirteen samples of the lyophilised material were dissolved in a small amount of hot solvent (^˜0.5 ml). […] A large excess of antisolvent was then added, the vials sealed. After storage at RT overnight, and samples where no solid had been produced were first cooled to 4° C. for ˜24 hrs, and again if no solid was produced, they were cooled to −18° C. Any solids were isolated by centrifuge filtration and analysed by XRPD.
For the cooling experiments twelve samples of the lyophilised material were dissolved in a small amount of hot solvent (^˜[…]) and syringe filtered through a 0.22 μm filter into a clean HPLC vial. Samples were allowed to cool to RT, and if no solid was produced to 4° C. and then to −18° C. Solids were isolated by centrifuge filtration and analysed by XRPD.

[5] = Solubility assessment in four different media; type: physicochemical; details: four media: SNF, pH 1.2, pH 4.5 and pH 6.8 media, 37 °C, aqueous buffer, thermodynamic from solid; four different media
Protocol: Solubility assessments of 5-MeO-DMT oxalate, hydrobromide fumarate and benzoate were performed in four different media: […]

[6] = DVS double-cycle experiment (Example 3); type: physicochemical
[7] = Storage at 40° C./75% RH and 25° C./97% RH for 7 days, XRPD and HPLC (Example 3); type: physicochemical
Protocol: FIG. 128. XRPD diffractogram overlay of 5-MeO-DMT Phosphate Pattern 1 before and after storage at 25° C./97% RH and 40° C./75% RH for 7 days.
FIG. 139. XRPD diffractogram overlay of 5-MeO-DMT Tartrate Pattern 1 before and after storage at 25° C./97% RH and 40° C./75% RH for 7 days.
The sample is classed as slightly hygroscopic with a total reversible mass change of 0.3 wt. % between 0-90% RH. The DVS isotherm and DVS kinetic plot can be seen in FIGS. 124 and 125, respectively. The solid form was unchanged after a double-cycle experiment, the XRPD analysis confirming this can be seen in FIG. 126.
The sample is classed as slightly hygroscopic with a total reversible mass change of 0.6 wt. % between 0-90% RH (FIG. 135). The solid-form was unchanged after the double-cycle experiment (FIG. 136).

**Q.** Which results are given for `COc1ccc2[nH]cc(CCN(C)C)c2c1.O=C(O)CC(O)C(=O)O` [Malate salt, 5-MeO-DMT malate]?
**A.** crystalline form after storage (XRPD) [1]: conversion to a “gum” material; thermal stability up to (TGA) ([2]; 10° C./min): around 170 °C

**Q.** Which “crystalline form after storage (XRPD)” value [1] does the source give for `COc1ccc2[nH]cc(CCN(C)C)c2c1` [Tosylate salt, 5-MeO-DMT tosylate] here?
**A.** The value was “identical XRPD pattern as the input material”.

**Q.** What about the “change of crystalline form during the DVS experiment (DVS / post-DVS XRPD)” value [3] of the same compound?
**A.** The value was “did not undergo any solid-state changes”.

**Q.** And the hygroscopicity class [3]?
**A.** Its hygroscopicity class is “slightly hygroscopic (Pharmaceuticals that pick up between 0.2% and 2.0% moisture at 80% RH are considered slightly hygroscopic)”.

**Q.** For `COc1ccc2[nH]cc(CCN(C)C)c2c1.Cl` [Hydrochloride pattern 2, 5-MeO-DMT hydrochloride], which “start of decomposition / complete mass loss (TGA)” value ([2]; 10° C./min, hydrochloride) is on record?
**A.** The value was “around 256 °C”.

**Q.** And the “XRPD Result” value ([4]; hydrochloride salt, solid isolated after thermal cycle between ambient and 40° C., three days, solvent per experiment: -01 1,4-Dioxane, -02 1-Propanol, -03 2-Butanol, -05 2-Methyltetrahydrofuran, -06 2-Propanol, -07 Acetone, -08 Acetonitrile, -09 Anisole, -10 Chlorobenzene, -11 Ethanol, -12 Ethyl acetate, -13 Isopropyl acetate, -14 Methanol, -15 Propyl acetate, -16 Methylethyl ketone, -20 iso-Prop, listed as DJP2202-007-01, hydrochloride)?
**A.** The value was “Pattern 2”.

**Q.** And the “3-day Observations” value ([4]; hydrochloride salt, thermally cycled between ambient and 40° C., three days, solvent per experiment: -01 1,4-Dioxane, -02 1-Propanol, -03 2-Butanol, -04 2-Ethoxyethanol, -05 2-Methyltetrahydrofuran, -06 2-Propanol, -07 Acetone, -08 Acetonitrile, -09 Anisole, -10 Chlorobenzene, -11 Ethanol, -12 Ethyl acetate, -13 Isopropyl acetate, -14 Methanol, -15 Propyl acetate, -16 Methylethyl ketone, -17 Forma, listed as DJP2202-007-01, hydrochloride)?
**A.** The value was “solid mass”.

**Q.** And the “Initial Observations” value ([4]; thermal cycle of lyophilised hydrochloride salt (~40 mg), solvent added, solvent per experiment: -01 1,4-Dioxane, -02 1-Propanol, -03 2-Butanol, -04 2-Ethoxyethanol, -05 2-Methyltetrahydrofuran, -06 2-Propanol, -07 Acetone, -08 Acetonitrile, -09 Anisole, -10 Chlorobenzene, -11 Ethanol, -12 Ethyl acetate, -13 Isopropyl acetate, -14 Methanol, -15 Propyl acetate, -16 Methylethyl ketone, -17 Formamide, listed as DJP2202-007-01, hydrochloride)?
**A.** Its value is “no change”.

**Q.** For `COc1ccc2[nH]cc(CCN(C)C)c2c1.O=C(O)c1ccccc1` [benzoate salt, 5-MeO-DMT benzoate], which “XRPD Result” value ([4]; evaporation at RT of lyophilised benzoate salt from 1-PrOH (DJP2202-010-02)) is on record?
**A.** Its value is “Oil”.

**Q.** And the “XRPD Result” value ([4]; evaporation at RT of lyophilised benzoate salt from EtOH (DJP2202-010-05))?
**A.** The value was “Oil”.

**Q.** What about the “XRPD Result” value ([4]; evaporation at RT of lyophilised benzoate salt from IPA (DJP2202-010-06)) of the same compound?
**A.** The value was “Pattern 4”.

**Q.** And the “XRPD Result” value ([4]; evaporation at RT of lyophilised benzoate salt from IPAc (DJP2202-010-10))?
**A.** Its value is “Pattern 2”.

**Q.** And the “XRPD Result” value ([4]; evaporation at RT of lyophilised benzoate salt from MEK (DJP2202-010-11))?
**A.** The value was “Pattern 4”.

**Q.** What about the “XRPD Result” value ([4]; evaporation at RT of lyophilised benzoate salt from MIBK (DJP2202-010-04)) of the same compound?
**A.** The value was “Oil”.

**Q.** And the “XRPD Result” value ([4]; evaporation at RT of lyophilised benzoate salt from MeCN (DJP2202-010-12))?
**A.** Its value is “Pattern 4”.

**Q.** And the “XRPD Result” value ([4]; evaporation at RT of lyophilised benzoate salt from THF (DJP2202-010-07))?
**A.** The value was “Pattern 4”.

**Q.** And the “XRPD Result” value ([4]; evaporation at RT of lyophilised benzoate salt from chlorobenzene (DJP2202-010-09))?
**A.** The value was “Pattern 4”.

**Q.** And the “XRPD Result” value ([4]; evaporation at RT of lyophilised benzoate salt from dioxane (DJP2202-010-08))?
**A.** Its value is “Pattern 4”.

**Q.** What about the solubility [5] of the same compound?
**A.** Its solubility is ≥ 100 mg/mL.

**Q.** What does the source list for `COc1ccc2[nH]cc(CCN(C)C)c2c1.O=P(O)(O)O` [DR-2186-48-01]?
**A.** GVS hygroscopicity class (European Pharmacopeia definitions) [6]: slightly hygroscopic (based on European Pharmacopeia (Pharmaceuticals that pick up between 0.2% and 2.0% moisture at 80% RH are considered slightly hygroscopic); GVS total mass change as mol eq. water ([6]; from 0-90% RH): 0.06 mol eq. water; GVS total mass change ([6]; from 0-90% RH, double cycle): 0.34 wt. %; TGA decomposition onset [2]: 130-170 °C Decomposition onset from 180 °C; TGA further mass lost during the melt ([2]; 130-170° C.): further 0.95% (0.1 mol eq. MeOH) was lost during the melt,; TGA mass loss ([2]; from 40-125° C.): 0.4 wt. % (0.04 mol. eq. MeOH) mass loss from 40-125 °C A; Static Storage 7 days - 25° C./97% RH, XRPD ([7]; 25° C./97% RH): XRPD - PHO Pattern 1; Static Storage 7 days - 25° C./97% RH, HPLC ([7]; 25° C./97% RH, HPLC purity): HPLC - 98.0%; Static Storage 7 days - 40° C./75% RH, XRPD ([7]; 40° C./75% RH): XRPD - PHO Pattern 1; Static Storage 7 days - 40° C./75% RH, HPLC ([7]; 40° C./75% RH, HPLC purity): HPLC - 98.1%

**Q.** With `COc1ccc2[nH]cc(CCN(C)C)c2c1` [Phosphate Pattern 1, 5-MeO-DMT phosphate] as the compound, how does the “total reversible mass change between 0-90% RH” value ([6]; DVS) read?
**A.** Its value is 0.3 wt. %.

**Q.** What does the source list for `COc1ccc2[nH]cc(CCN(C)C)c2c1` [Phosphate salt, 5-MeO-DMT phosphate]?
**A.** crystalline form after storage (XRPD) [1]: did not undergo any transformation; change of crystalline form during the DVS experiment (DVS / post-DVS XRPD) [3]: no evidence of form change

**Q.** With `COc1ccc2[nH]cc(CCN(C)C)c2c1` [Benzenesulfonate salt, 5-MeO-DMT benzenesulfonate] as the compound, how does the “thermal stability up to (TGA)” value ([2]; 10° C./min) read?
**A.** Its value is 250 °C.

**Q.** What about the “moisture absorption at 70% RH” value [3] of the same compound?
**A.** Its value is 7 % w/w.

**Q.** And the “moisture absorption at 80% RH” value [3]?
**A.** Its value is 14 % w/w.

**Q.** What about the “water uptake up to 60% RH” value [3] of the same compound?
**A.** Its value is 1.2 % w/w.

**Q.** And the “deliquescence during DVS” value [3]?
**A.** The value was “begins to deliquesce”.

**Q.** Which results are given for `COc1ccc2[nH]cc(CCN(C)C)c2c1` [glycolate salt, 5-MeO-DMT glycolate]?
**A.** thermal stability up to (TGA) ([2]; 10° C./min): around 155 °C; moisture absorption at 70% RH [3]: 11 % w/w; moisture absorption at 80% RH [3]: 33 % w/w; water uptake up to 60% RH [3]: 2.3 % w/w; deliquescence during DVS [3]: begins to deliquesce

**Q.** With `COc1ccc2[nH]cc(CCN(C)C)c2c1` [Tartrate salt, 5-MeO-DMT tartrate] as the compound, how does the “crystalline form after storage (XRPD)” value [1] read?
**A.** The value was “No change in the crystalline form”.

**Q.** And the “thermal stability up to (TGA)” value ([2]; 10° C./min)?
**A.** The value was “around 170 °C”.

**Q.** And the “change of crystalline form during the DVS experiment (DVS / post-DVS XRPD)” value [3]?
**A.** The value was “did not undergo any solid form transformation”.

**Q.** And the hygroscopicity class [3]?
**A.** The hygroscopicity class was “moderately hygroscopic (Pharmaceuticals that pick up between 2.0% and 15.0% moisture at 80% RH are considered moderately hygroscopic)”.

**Q.** And the hygroscopicity class ([3]; listed as tartrate salt)?
**A.** Its hygroscopicity class is “moderately hygroscopic (Pharmaceuticals that pick up between 2.0% and 15.0% moisture at 80% RH are considered moderately hygroscopic)”.
